Assay results taken from patent publication US11178868B2, “Alkynyl-substituted 3-phenylpyrrolidine-2,4-diones and use thereof as herbicides” (Bayer CropScience Aktiengesellschaft, priority 2015, dated 2021).

Legend:
Type in all cases: in vivo
Alopecurus myosuroides [1] = test: Post-emergence herbicidal effect; details: assessed visually after about 3 weeks
Method: (§1) Seeds of monocotyledonous and dicotyledonous weed and crop plants are laid out in sandy loam in wood-fibre pots, covered with soil and cultivated in a greenhouse under good growth conditions. 2 to 3 weeks after sowing, the test plants are treated at the one-leaf stage. The compounds according to the invention, formulated in the form of wettable powders (WP) or as emulsion concentrates (EC), are then sprayed as aqueous suspension or emulsion at a water application rate of 600 to 800 I/ha (converted) with the addition of 0.2% of wetting agent onto the green parts of the plants. After the test plants have been left to stand in the greenhouse under optimal growth conditions for about 3 weeks, the action of the preparations is assessed visually in comparison to untreated controls (herbicidal action in percent (%): 100% activity=the plants have died, 0% activity=like control plants).

Echinochloa crus-galli [2] = test: Post-emergence herbicidal effect; details: assessed visually after about 3 weeks
Method: as §1

Setaria viridis [3] = test: Post-emergence herbicidal effect; details: assessed visually after about 3 weeks
Method: as §1

Lolium multiflorum [4] = test: Post-emergence herbicidal effect; details: assessed visually after about 3 weeks
Method: as §1

Avena fatua [5] = test: Post-emergence herbicidal effect; details: assessed visually after about 3 weeks
Method: as §1

Amaranthus retroflexus = test: Post-emergence herbicidal effect; details: assessed visually after about 3 weeks
Method: as §1

Alopecurus myosuroides [6] = test: Pre-emergence herbicidal effect; details: scored visually after 3 weeks
Description: (§2) Seeds of monocotyledonous and dicotyledonous weed plants and crop plants are laid out in wood-fibre pots in sandy loam and covered with soil. The compounds according to the invention formulated in the form of wettable powders (WP) or as emulsion concentrates (EC) are then applied as aqueous suspension or emulsion at a water application rate of 600 to 800 I/ha (converted) with the addition of 0.2% wetting agent to the surface of the covering soil. After the treatment, the pots are placed in a greenhouse and kept under good growth conditions for the trial plants. The damage to the test plants is scored visually after a test period of 3 weeks by comparison with untreated controls (herbicidal activity in percent (%): 100% activity=the plants have died, 0% activity=like control plants).

Echinochloa crus-galli [7] = test: Pre-emergence herbicidal effect; details: scored visually after 3 weeks
Description: as §2

Setaria viridis [8] = test: Pre-emergence herbicidal effect; details: scored visually after 3 weeks
Description: as §2

Lolium multiflorum [9] = test: Pre-emergence herbicidal effect; details: scored visually after 3 weeks
Description: as §2

Avena fatua [10] = test: Pre-emergence herbicidal effect; details: scored visually after 3 weeks
Description: as §2

Cyperus esculentus = test: Pre-emergence herbicidal effect; details: scored visually after 3 weeks
Description: as §2

Compound | Herbicidal effect against [%] ALOMY (Alopecurus myosuroides [1]; 80 g a.i./ha) | Herbicidal effect against [%] ECHCG (Echinochloa crus-galli [2]; 20 g a.i./ha) | Herbicidal effect against [%] ECHCG (Echinochloa crus-galli [2]; 80 g a.i./ha) | Herbicidal effect against [%] SETVI (Setaria viridis [3]; 20 g a.i./ha) | Herbicidal effect against [%] SETVI (Setaria viridis [3]; 80 g a.i./ha) | Herbicidal effect against [%] LOLMU (Lolium multiflorum [4]; 20 g a.i./ha) | Herbicidal effect against [%] LOLMU (Lolium multiflorum [4]; 80 g a.i./ha) | Herbicidal effect against [%] AVEFA (Avena fatua [5]; 80 g a.i./ha) | Herbicidal effect against [%] ALOMY (Alopecurus myosuroides [6]; 80 g a.i./ha) | Herbicidal effect against [%] ALOMY (Alopecurus myosuroides [6]; 320 g a.i./ha) | Herbicidal effect against [%] ECHCG (Echinochloa crus-galli [7]; 80 g a.i./ha) | Herbicidal effect against [%] ECHCG (Echinochloa crus-galli [7]; 320 g a.i./ha) | Herbicidal effect against [%] SETVI (Setaria viridis [8]; 80 g a.i./ha) | Herbicidal effect against [%] SETVI (Setaria viridis [8]; 320 g a.i./ha) | Herbicidal effect against [%] LOLMU (Lolium multiflorum [9]; 80 g a.i./ha) | Herbicidal effect against [%] LOLMU (Lolium multiflorum [9]; 320 g a.i./ha) | Herbicidal effect against [%] AVEFA (Avena fatua [10]; 80 g a.i./ha) | Herbicidal effect against [%] AVEFA (Avena fatua [10]; 320 g a.i./ha) | Herbicidal effect against [%] CYPES (Cyperus esculentus; 320 g a.i./ha) | Herbicidal effect against [%] ALOMY (Alopecurus myosuroides [1]; 20 g a.i./ha) | other results
CC#Cc1cc(CC)c(C2=C(OC(=O)OCC)C3(CCCC(OCC)C3)NC2=O)c(CC)c1 (single isomer, unassigned) [Example P4] | 100% | 100% | 100% | 100% | 100% | 100% | 100% | 100% | 100% | 100% | 100% | 100% | 100% | 100% | 100% | 100% | 100% | 100% |  |  | Herbicidal effect against [%] AMARE (Amaranthus retroflexus; 80 g a.i./ha): 80%
CC#Cc1cc(C)c(C2=C(O)C3(CCCC(OCCC)C3)NC2=O)c(C)c1 (stereo not shown) [Example D3, 3-[2,6-Dimethyl-4-(prop-1-yn-1-yl)phenyl]-4-hydroxy-7-propoxy-1-azaspiro[4.5]dec-3-en-2-one] |  | 100% | 100% | 80% | 100% | 80% | 100% | 90% | 100% | 100% | 100% | 100% | 100% | 100% | 100% | 100% | 80% | 100% |  |  | Herbicidal effect against [%] AMARE (Amaranthus retroflexus; 80 g a.i./ha): 90%
C#Cc1cc(C)c(C2=C(O)C3(CCCC(OCCCC)C3)NC2=O)c(C)c1 (stereo not shown) [Example D4] |  |  |  |  |  |  |  |  |  |  |  | 100% |  | 80% |  | 80% |  |  | 100% |  | 
CC#Cc1cc(C)c(C2=C(O)C3(CCCC(OCCOC)C3)NC2=O)c(CC)c1 (stereo not shown) [Example D8] | 100% | 100% | 100% | 100% | 100% | 100% | 100% | 100% | 100% | 100% | 100% | 100% | 100% | 100% | 100% | 100% | 100% | 100% | 100% | 100% | Herbicidal effect against [%] AVEFA (Avena fatua [5]; 20 g a.i./ha): 100%
CC#Cc1cc(C)c(C2=C(OC(=O)OCC)C3(CCCC(OCC)C3)NC2=O)c(CC)c1 (stereo not shown) [Example P1] |  |  |  |  | 100% |  |  |  | 100% | 100% | 100% | 100% | 100% | 100% | 100% | 100% | 80% | 100% | 100% |  | Herbicidal effect against [%] CYPES (Cyperus esculentus; 80 g a.i./ha): 100%
CC#Cc1cc(C)c(C2=C(OC(=O)OCC)C3(CCCC(OCCOC)C3)NC2=O)c(CC)c1 (stereo not shown) [Example P13] | 100% | 100% | 100% | 100% | 100% | 100% | 100% | 100% | 100% | 100% | 100% | 100% | 100% | 100% | 100% | 100% | 100% | 100% | 90% | 100% | Herbicidal effect against [%] AVEFA (Avena fatua [5]; 20 g a.i./ha): 100%
CC#Cc1cc(C)c(C2=C(OC(=O)OC(C)C)C3(CCCC(OCCOC)C3)NC2=O)c(C)c1 (stereo not shown) [Example P14] | 100% | 100% | 100% | 90% | 100% | 100% | 100% | 90% | 100% | 100% | 100% | 100% | 100% | 100% | 100% | 100% | 100% | 100% |  | 100% | Herbicidal effect against [%] AVEFA (Avena fatua [5]; 20 g a.i./ha): 90%
CC#Cc1cc(C)c(C2=C(OC(=O)OC)C3(CCCC(OCCOC)C3)NC2=O)c(C)c1 (stereo not shown) [Example P16] | 100% | 100% | 100% | 100% | 100% | 100% | 100% | 100% | 100% | 100% | 100% | 100% |  |  | 100% | 100% | 100% | 100% |  | 100% | Herbicidal effect against [%] AVEFA (Avena fatua [5]; 20 g a.i./ha): 100%; Herbicidal effect against [%] AMARE (Amaranthus retroflexus; 20 g a.i./ha): 80%; Herbicidal effect against [%] AMARE (Amaranthus retroflexus; 80 g a.i./ha): 80%
